In article PMC9969401, “Discovery of 2-(3-Benzamidopropanamido)thiazole-5-carboxylate Inhibitors of the Kinesin HSET (KIFC1) and the Development of Cellular Target Engagement Probes” (Journal of Medicinal Chemistry, 2023):

Experiments:
DLD1 HSET KO cells = assay: Click probe localization imaging in DLD1 HSET KO cells (negative control); format: cell-based, human; conditions: HSET nonexpressing (DLD1 HSET KO) cells
Experimental: (§1) The Cy-5 tetrazine dye selected for this experiment is not cell-permeable, thus fixation and permeabilization of cells were necessary prior to its addition. Experiments were conducted in DLD1 4N cells and, as a negative control, isogenic 2N DLD1 HSET KO cells in which HSET expression was prevented by the disruption of the HSET gene using CRISPR. Cells were treated first with proTAME for 2 h to accumulate mitotic events, followed by treatment with the TCO probe 40 for 45 min. The live cells were then fixed and permeabilized before treatment with the tetrazine-Cy5 dye and incubation to allow the IEDDA reaction to occur. Additionally, the cells were stained for the endogenous HSET protein using indirect immunofluorescence and imaged to observe the fluorescence from both the TCO probe and antibody-labeled HSET. […] A 3 μM concentration of the probe 40 gave an acceptable signal-to-noise ratio of around 2:1. Even under these optimal conditions, some residual uniform cytoplasmic Cy5 signal was observed within the cells. However, a clear Cy5 decoration of the mitotic spindle was seen, which overlapped with the signal from the antibody-probed endogenous HSET protein (Figures 2A and S6). […] We observed a 14–17-fold increase in signal in DLD1 4N cells treated with 40 relative to tetrazine-Cy5 alone. […] Comparing the intensity of click probe labeling coincident with the mitotic spindle in DLD1 4N cells to that in DLD1 HSET KO cells after both were treated with 40, we observed a twofold higher signal in the former.
(§2) Direct target engagement of active inhibitor 36 was measured by calculating its capacity to displace the TCO-containing probe 40. 4N DLD1 cells and DLD1 HSET KO cells (negative control) were plated in 96-well ibidi μ-Clear plates (IB-89626, ibidi). Cells were first treated for 2 h with 8 μM pro-TAME (I-440–01M, R&D system) to accumulate mitotic cells and were then treated with 8 μM MG-132 (S2619, SelleckChem) and 3 μM 40, alone or together with active inhibitor 36 in DMEM media with 1% FBS for 45 min. Cells were then washed three times in DMEM, with the second wash being incubated for 10 min to ensure the optimal reduction of unspecific compound binding. After an additional PBS wash, cells were then fixed in 4% PFA/PBS (15670799, Thermo Scientific) prior to incubation with 400 nM tetraszine-Cy5 (CLK-015-05, Jena Biosciences) in 1.5% FBS/PBS for 10 min at room temperature. Cells were permeabilized by the addition of 0.5% TritonX-100/PBS for 5 min before being stained overnight for Pericentrin (1:1500 ab28144 mouse anti-PCNT, Abcam) and KIFC1 (1:1500 12313S rabbit anti-KIFC1, Cell Signaling Technologies). Secondary antibodies Alexa Fluor 488 donkey antirabbit and Alexa Fluor 555 donkey antimouse (1:1500, A21206 and A31570, respectively, Life Technologies) were added together with 1 μg/mL DAPI (D9542, Sigma) in 1.5% FBS in PBS.
(§3) Plates were imaged at 40× using a Zeiss LSM980 confocal microscope with Airyscan 2. The subsequent analysis and quantification were performed using 3D image segmentation with the Arivis4D software. Mitotic cells were segmented by selecting for the highest density (integrated DAPI intensity/total volume), and the mitotic pole areas were segmented using the Pericentrin signal. The signal of the click probe (Cy5) and total KIFC1 (FITC) was measured on the mitotic pole area, and both were normalized to the control condition containing 40 probe alone. The ratio of probe per target (click probe pole integrated intensity signal/KIFC1 pole integrated intensity signal) was used to calculate the occupancy of the probe in the target protein and normalized to the control condition containing 40 probe alone (n > 100 for each replicate, two replicates per concentration point).

[1] = target: T1, recombinant full-length HSET (Homo sapiens, UniProt Q9BW19); assay: ADP-Glo HSET assay (3 μM ATP), microtubule-stimulated ATPase; format: biochemical; conditions: preformed microtubules, 3 μM ATP; mean (±SD) n ≥ 3 (37 n = 2, 38 single determination) (Table 3); read-out: HSET ADP-Glo IC50
T1 construct: 5 nM full-length human N-terminal His-tag HSET; His-tag (N)
T1 sequence (Q9BW19 1-673): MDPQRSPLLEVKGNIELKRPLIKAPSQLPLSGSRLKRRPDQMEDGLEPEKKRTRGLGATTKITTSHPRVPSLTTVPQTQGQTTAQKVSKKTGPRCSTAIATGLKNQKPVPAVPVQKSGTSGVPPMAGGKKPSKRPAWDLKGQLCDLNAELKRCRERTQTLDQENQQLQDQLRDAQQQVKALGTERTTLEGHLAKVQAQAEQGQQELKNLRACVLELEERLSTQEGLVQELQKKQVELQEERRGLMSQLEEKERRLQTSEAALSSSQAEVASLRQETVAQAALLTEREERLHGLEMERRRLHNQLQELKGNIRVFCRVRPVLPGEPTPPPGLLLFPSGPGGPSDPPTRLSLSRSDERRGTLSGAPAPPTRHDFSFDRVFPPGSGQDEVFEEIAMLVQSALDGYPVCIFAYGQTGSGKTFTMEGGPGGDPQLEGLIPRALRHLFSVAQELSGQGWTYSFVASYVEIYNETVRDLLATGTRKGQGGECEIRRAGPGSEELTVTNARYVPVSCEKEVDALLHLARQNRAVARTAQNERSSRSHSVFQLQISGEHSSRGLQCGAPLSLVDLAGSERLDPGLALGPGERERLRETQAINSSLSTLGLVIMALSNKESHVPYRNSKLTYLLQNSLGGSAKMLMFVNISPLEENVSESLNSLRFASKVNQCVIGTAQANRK
Experimental: The HSET or Eg5 ATPase activity was measured using the ADP-Glo Kinase Assay kit (Promega, V9102). The assays were run using final concentrations of 5 nM full-length human N-terminal His-tag HSET or 4 nM GST-tagged Eg5 motor domain protein (Cytoskeleton, EG01) and an assay buffer containing 20 mM HEPES pH 6.8, 10 mM MgCl2, 0.25 mM EGTA, 0.4 mM Triton X-100, and 1 mM DTT. Preformed microtubules (Universal Biologicals Cambridge, bovine MT001-XL, or porcine MT002-XL), which were reconstituted in 15 mM PIPES pH 7, 1 mM MgCl2, and 20 μM paclitaxel, were present at a final assay concentration of 70 μg/mL. A reaction volume of 5 μL was used in Proxiplate 384 plus white assay plates (PerkinElmer, 6008280). To measure compound inhibition, 100 nL of compound dissolved in DMSO or DMSO alone was preincubated with the HSET and microtubules for 10 min before 3 μM Ultra-Pure ATP was added to start the ATPase reaction for the 3 μM ATP HSET assay. For the 500 μM ATP HSET assay, the addition of 500 μM Ultra-Pure ATP was used. For the Eg5 ATPase assay, 4.8 μM Ultra-Pure ATP was used. All reactions were incubated at 25 °C for 80 min and then stopped by the addition of 5 μL of the ADP-Glo reagent. 10 μL of Kinase Detection Reagent was then added after a further 45 min of incubation. The luminescence was read after 45 min on a PheraStar FSX plate reader (BMG Labtech). The data processing was performed using Dotmatics Studies software package. Percentage inhibition was determined based on normalization to high controls (0% inhibition, all reagents with 100 nL of DMSO alone) and low controls (100% inhibition […], without HSET). The IC50 values for each compound were determined using a four-parameter logistic curve fit of % inhibition versus concentration.

HSET in DLD1 4N cells = target: T2, HSET in DLD1 4N cells (Homo sapiens, UniProt Q9BW19); assay: Click probe localization target engagement imaging in DLD1 4N cells; format: cell-based; conditions: DLD1 4N cells treated with 40
T2 construct: overlapped with the signal from the antibody-probed endogenous HSET protein; endogenous in cells; host or cells: DLD1 4N cells
T2 sequence (Q9BW19 1-673): T1 sequence (Q9BW19 1-673)
Experimental: as §1, §2, §3

[2] = Kinetic aqueous solubility (KSol), HPLC-UV; format: physicochemical; conditions: PBS buffer pH 7.4, 100 μM solution with 1% DMSO, HPLC with UV detection

- IC50 [1]: 39 nM
- fold increase in signal relative to tetrazine-Cy5 alone (HSET in DLD1 4N cells): 14–17 fold
- KSol data [2]: 1.1 µM
SMILES: CCCOC(=O)c1sc(NC(=O)C[C@H](CCCN(C)CC#CCNC(=O)O[C@@H]2CC/C=C/CCC2)NC(=O)c2cccc(-c3noc(C)n3)c2)nc1C [Compound 40, propyl 2-((S)-6-((4-(((((S,E)-Cyclooct-4-en-1-yl)oxy)carbonyl)amino)but-2-yn-1-yl)(methyl)amino)-3-(3-(5-methyl-1,2,4-oxadiazol-3-yl)benzamido)hexanamido)-4-methylthiazole-5-carboxylate]
- fold increase in signal relative to tetrazine-Cy5 alone (DLD1 HSET KO cells): 7–8 fold
